Source: paper PMC3280530, “Marine Compounds Selectively Induce Apoptosis in Female Reproductive Cancer Cells but Not in Primary-Derived Human Reproductive Granulosa Cells” (Marine Drugs, 2012)

Columns and labels:
[1] = tested on: primary-derived human reproductive granulosa cells (HGC); assay: LDH membrane integrity assay (necrosis); type: cell-based
Description: (§1) The primary-derived granulosa cells, along with the KGN, JAr and OVCAR-3 cell lines (10,000 cells per well) were plated into sterile white (opaque) 96-well plates (Interpath) and clear sterile 96-well plates (Interpath) in 0.1 mL per well of complete cell culture medium for 24 h (granulosa, KGN and OVCAR-3 cells) and 2 h (for JAr cells) to allow cell adherence. Standard curves of 0–40,000 cells per well (primary granulosa cells) and 0–80,000 cells per well (for KGN, JAr and OVCAR-3 cells) in six replicate wells were plated into clear 96-well plates, alongside the test plates. After the initial cell adherence period, spent media (media deficient of nutrients and serum) were discarded and primary-derived granulosa, KGN, JAr and OVCAR-3 cells were treated with the two D. orbita fractions at concentrations of 0.005, 0.01, 0.05, 0.1, and 0.5 mg/mL in a final volume of 0.1 mL per well in triplicate wells, for 4 and 24 h at 37 °C + 5% CO2. 1 h prior to the end of eachincubation period two positive controls were added; one for apoptosis (1 μg/mL DNase I), and the second for necrosis (2 μL per well of a cell lysis buffer; Promega). This experiment was repeated on three separate occasions (n = 3).
(§2) After 4 and 24 h exposure to the D. orbita fractions in opaque 96-well plates, a combined membrane integrity and caspase 3/7 assay were performed on the primary-derived granulosa cells and KGN cells. The CytoTox-ONE Homogeneous Membrane Integrity Assay kit (Promega) was applied according to the manufacturer’s instructions. After the fluorescence was read at 535EX/590EM, the Caspase-Glo 3/7® assay (Promega) was applied to the primary granulosa cells and KGN cells according to the manufacturer’s instructions for1h and the plates were read on full light to capture total luminescence. The LDH-membrane integrity assay alone was performed on the JAr and OVCAR-3 cells using the CytoTox-ONE Homogeneous Membrane Integrity Assay kit (Promega). This assay was repeated on three separate occasions (n = 3).

OVCAR-3 cells [2] = assay: Crystal violet cell viability assay; type: cell-based; conditions: Homo sapiens, OVCAR-3, crystal violet
Description: (§3) For cell assays, the D. orbita fractions were prepared fresh on the day of the experiment by dissolving in dimethyl sulfoxide (DMSO; 100%) at 100× the final concentration. These were diluted to a range of working concentrations (0.001–0.5 mg/mL) in complete cell assay medium to give a final working concentration per well of 1% DMSO. All samples were filtered through a […] (Sartorius) filter before use.
as §1
(§4) After 4 and 24 h exposure to D. orbita fractions in clear 96-well plates, media and all dead unattached cells were removed. The remaining adherent cells were rinsed with sterile 1× PBS and the crystal violet assay was performed. The crystal violet assay is a colourmetric assay in which only the nuclei of live cells take up the crystal violet stain (0.5%). The absorbance in the wells of the crystal violet plates were read on an automatic spectrophotometer at 570 nm, with reference absorbance 630 nm using KC Junior Software. This assay was repeated on three separate occasions (n = 3).

JAr cells [3] = assay: Crystal violet cell viability assay; type: cell-based; conditions: Homo sapiens
Description: as §3, §1, §4

[4] = tested on: primary-derived human reproductive granulosa cells (HGC); assay: Crystal violet cell viability assay; type: cell-based
Description: as §3, §1, §4

KGN cells [5] = assay: Crystal violet cell viability assay; type: cell-based; conditions: Homo sapiens
Description: as §3, §1, §4

[6] = tested on: primary-derived human reproductive granulosa cells (HGC); assay: TUNEL staining (apoptosis); type: cell-based
Description: (§5) Primary-derived human granulosa cells and KGN cells were plated into Nunc Lab-Tek II CC2 Chamber Slides at 30,000 cells per chamber well in a final volume of 0.3 mL of DMEM/F12 + 10% FBS complete cell culture medium and incubated for 24 h at 37 °C + 5% CO2 to allow cell attachment to slides. Spent media (media deficient of nutrients and serum) and non-viable and non-adherent cellswere discarded and replaced with the D. orbita fractions at concentrations of 0.005, 0.01 and 0.05 mg/mL in a final volume of 0.3 mL of DMEM/F12 + 10% medium. A medium-only and a 1% DMSO control were also added before incubation for 4 and 24 h at 37 °C + 5% CO2. This experiment was repeated on three separate occasions (n = 3). The supernatant was removed and the cells rinsed with PBS before fixation with 4% paraformaldehyde for 25 min at room temperature. The DeadEnd™ Fluorometric TUNEL System (Promega) was performed as recommended by the manufacturer. Briefly the cells were treated with 0.2% Triton X-100 for 5 min, to permeablize the cells. The cells were rinsed in PBS before the addition of 50 μL of rTdT incubation buffer (Promega) at 37 °C for 1 h, protected from light. Cells were rinsed in 2× sodium chloride and sodium citratesolution (Promega) for 15 min at room temperature (25 °C) then rinsed again with PBS. The cells were counter-stained with 1 μg/mL propidium iodide (PI). A separate positive control slide of 1 μg/mL DNase I, and a negative control slide of buffer without rTdT, was prepared in conjunction with treatment slides. Cells were examined immediately and photographed at 200 and 400× magnification using a Fluorescence Olympus BX50 Microscope with filter Chroma 31001 at excitation 450–495 nm, Dichroic 505 and emission 515–555 nm for the green fluorescein of TUNEL and Chroma 31002 at excitation 515–550 nm, Dichroic 565 and emission 575–615 nm for the red fluorescence of the PI staining. Photomicrographs of four fields of view were taken for each treatment in each repeat of theassay and the number of TUNEL positive nuclei, stained bright green, were calculated as a fraction of the total number of PI stained nuclei, stained bright red, in each image. The average of the four fields was then calculated.

OVCAR-3 cells [7] = assay: LDH membrane integrity assay (necrosis); type: cell-based, human; conditions: OVCAR-3, exposure time not stated at the place (4 and 24 h tested)
Description: as §1, §2

JAr cells [8] = assay: LDH membrane integrity assay (necrosis); type: cell-based, human; conditions: exposure time not stated at the place (4 and 24 h tested)
Description: as §1, §2

KGN cells [9] = assay: LDH membrane integrity assay (necrosis); type: cell-based, human; conditions: exposure time not stated at the place (4 and 24 h tested)
Description: as §1, §2

KGN cells [10] = assay: TUNEL staining (apoptosis); type: cell-based, human
Description: as §5

JAr cells [11] = assay: MTT cell viability assay; type: cell-based; conditions: Homo sapiens
Description: as §3, §1
(§6) After 4, 24, 48 and 72 h exposure to D. orbita fractions in clear 96-well plates, media and all dead unattached cells were removed. The remaining adherent cells were rinsed with sterile 1× PBS and the MTT assay was performed. The MTT assay measures the reduction of a yellow substrate to formazan, a purple precipitate, by the mitochondrial succinate dehydrogenase enzymes. A solution of 0.5 mg/mL MTT (was added to wells in a final volume of 0.1 mL. The plates were then incubated for 1 h (JAr cells) and 18 h (KGN, OVCAR-3 and GC cells) at 37 °C and 5% CO2. At the end of the incubation period, 80 μL/well 20% SDS in 0.02 M HCl was added and plate was incubated for a further 1 h at room temperature in the dark. The absorbance was the measured at 570 nm, with reference absorbance 630 nm, using an automatic spectrophotometer using KC Junior software. This assay was repeated on three separate occasions (n = 3).

[12] = tested on: primary-derived human reproductive granulosa cells (HGC); assay: MTT cell viability assay; type: cell-based; conditions: Homo sapiens, HGC, MTT
Description: as §3, §1, §6

OVCAR-3 cells [13] = assay: MTT cell viability assay; type: cell-based, human; conditions: OVCAR-3, MTT
Description: as §3, §1, §6

KGN cells [14] = assay: MTT cell viability assay; type: cell-based, human
Description: as §3, §1, §6

[15] = tested on: caspase-3 and -7 activity in KGN cells; assay: Caspase-Glo 3/7 assay; type: cell-based, human
Description: as §1, §2

[16] = tested on: caspase-3 and -7 activity in HGC; assay: Caspase-Glo 3/7 assay; type: cell-based, human; conditions: 4 h treatment
Description: as §1, §2

O=C1Nc2cc(Br)ccc2C1=O [6-Bromoisatin, 6-bromoisatin]
concentration required to cause LDH release (necrosis) ([1]; 4 h exposure): 2232 µM
concentration required to cause LDH release (necrosis) ([1]; 24 h exposure): 2232 µM
IC50 (OVCAR-3 cells [2]; 4 h): 446 µM
IC50 (OVCAR-3 cells [2]; 24 h): 268 µM
IC50 (JAr cells [3]; 4 h): 223 µM
IC50 (JAr cells [3]; 24 h): 178 µM
IC50 ([4]; 4 h): > 2.23 mM
IC50 ([4]; 24 h): > 2.23 mM
IC50 (KGN cells [5]; 4 h): 892 µM
IC50 (KGN cells [5]; 24 h): 223 µM
TUNEL positive cells ([6]; 4 h, 0.05 mg/mL): 27%
TUNEL labelled cells ([6]; 24 h, 0.005 mg/mL): 10%
concentration at which LDH release significantly increased (OVCAR-3 cells [7]): 446 µM
concentration at which LDH release significantly increased (JAr cells [8]): 446 µM
concentration at which LDH release significantly increased (KGN cells [9]): 446 µM
TUNEL positive cells (KGN cells [10]; 4 h, 0.05 mg/mL): 58%
TUNEL labelled cells (KGN cells [10]; 24 h, 0.005 mg/mL): 53%
IC50 (JAr cells [11]; 4 h): 223 µM
IC50 (JAr cells [11]; 24 h): 446 µM
IC50 (JAr cells [11]; 48 h): 446 µM
IC50 ([12]; 4 h): > 4.46 mM
IC50 ([12]; 24 h): > 4.46 mM
IC50 ([12]; 48 h): 1.78 mM
IC50 ([12]; 72 h): 2.23 mM
IC50 (OVCAR-3 cells [13]; Homo sapiens, OVCAR-3, 4 h, 4 h): 402 µM
IC50 (OVCAR-3 cells [13]; Homo sapiens, OVCAR-3, 24 h, 24 h): 446 µM
IC50 (OVCAR-3 cells [13]; Homo sapiens, OVCAR-3, 48 h, 48 h): 89 µM
IC50 (OVCAR-3 cells [13]; Homo sapiens, OVCAR-3, 72 h, 72 h): 22 µM
IC50 (OVCAR-3 cells [13]; 72 h): < 22 µM
IC50 (KGN cells [14]; 72 h): < 22 µM
IC50 (KGN cells [14]; Homo sapiens, 4 h): 178 µM
IC50 (KGN cells [14]; Homo sapiens, 24 h): 446 µM
IC50 (KGN cells [14]; Homo sapiens, 48 h): 22 µM
IC50 (KGN cells [14]; Homo sapiens, 72 h): 22 µM
concentration at which caspase-3 and -7 activity (apoptosis) significantly increased ([15]; 4 h treatment): 22 µM
change of caspase-3 and 7 activity ([15]; 24 h, 22–2232 µM (0.005–0.5 mg/mL), dose-dependent): significantly decreased
concentration at which caspase-3 and -7 activity was detected [16]: 0.1 mg/mL
